Our source for the Emax and IC50 values is patent publication US20180338980A1, “AROMATIC SULFONAMIDE DERIVATIVES” (BAYER PHARMA AKTIENGESELLSCHAFT, priority 2015, published 2018).

For assay [1], the target named is T1, P2X4 (Homo sapiens, UniProt Q99571).
T1 sequence (Q99571 1-388): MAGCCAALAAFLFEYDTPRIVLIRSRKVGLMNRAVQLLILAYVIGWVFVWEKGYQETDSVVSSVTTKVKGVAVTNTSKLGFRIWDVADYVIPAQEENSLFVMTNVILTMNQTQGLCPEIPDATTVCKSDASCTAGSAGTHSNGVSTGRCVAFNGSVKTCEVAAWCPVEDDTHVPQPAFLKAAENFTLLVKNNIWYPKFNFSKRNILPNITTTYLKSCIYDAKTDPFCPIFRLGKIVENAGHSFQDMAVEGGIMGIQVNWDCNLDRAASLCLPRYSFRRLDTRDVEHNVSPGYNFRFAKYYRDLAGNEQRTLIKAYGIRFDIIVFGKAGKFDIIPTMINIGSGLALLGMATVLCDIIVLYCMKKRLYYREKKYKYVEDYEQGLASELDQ
The experiment in a line: Assay A: human P2X4 receptor cell line, FLIPR calcium assay (Fluo-8, agonist Bz-ATP at EC80). Details: host or cells: HEK 293 (recombinant, constitutively expressing; with mitochondrial photina in Assay B). The following applies: HEK human P2X4 cells, Fluo-8 FLIPR; for Emax: percentage of maximal inhibition, read-out: human P2X4 Assay A avg Efficacy; for IC50: Bz-ATP at EC80, average values. The assay is classed as cell-based. A digest of the protocol:
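Antagonism read as inhibition of the calcium response to EC80 Bz-ATP, by peak-over-basal Fluo-8 fluorescence over 120 s, normalized to DMSO wells. Human P2X4-HEK cells, dye-loaded 30 min in probenecid-containing HBSS/HEPES pH 7.4, received compound 30 min beforehand at room temperature, 0.5% DMSO final. Triplicates fitted for IC50, maximal inhibition and Hill slope.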

Assay [2] has as its target T1, P2X4. The experiment in a line: Assay B: human P2X4 receptor cell line, mitochondrial photina luminescence (agonist Bz-ATP at EC50). The assay is classed as cell-based. Details: host or cells: HEK 293 (recombinant, constitutively expressing; with mitochondrial photina in Assay B). The following applies: HEK human P2X4 cell line, photina luminescence, agonist Bz-ATP at EC50, average; for Emax: read-out: human P2X4 Assay B avg Efficacy. Put shortly:
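Bz-ATP at its EC50 activates human P2X4 stably expressed in a cell line that also carries the calcium-sensitive photoprotein mitochondrial photina (coelenterazine cofactor). Light emitted on calcium influx is measured straight away in a luminometer. Reduced luminescence indicates antagonism.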

As to `NS(=O)(=O)c1cc(NC(=O)Cc2ccc(F)cc2)ccc1Oc1cccc(Cl)c1` [Example 085, N-[4-(3-Chlorophenoxy)-3-sulfamoylphenyl]-2-(4-fluorophenyl)acetamide], the Emax at P2X4 [1] came out at 86%; at P2X4 [2], 59%.

As to `NS(=O)(=O)c1cc(NC(=O)Cc2ccccc2C(F)F)ccc1Oc1cccc(Cl)c1` [Example 089, N-[4-(3-Chlorophenoxy)-3-sulfamoylphenyl]-2-[2-(difluoromethyl)phenyl]acetamide], at P2X4 [1], the IC50 was 0.102 µM and the Emax came to 85%. Moreover, at P2X4 [2], the IC50 worked out at 0.145 µM and the Emax turned out to be 66%.

Take `NS(=O)(=O)c1cc(NC(=O)Cc2ccccc2Br)ccc1Oc1cccc(Cl)c1` [Example 091, 2-(2-Bromophenyl)-N-[4-(3-chlorophenoxy)-3-sulfamoylphenyl]acetamide]: on P2X4 [1], the IC50 turned out to be 0.027 µM and the Emax came out at 75%. Moreover, at P2X4 [2], the IC50 was 0.053 µM and the Emax worked out at 58%.

Take `Cc1ccc(CC(=O)Nc2ccc(Oc3cccc(Cl)c3)c(S(N)(=O)=O)c2)c(Cl)c1` [Example 095, 2-(2-Chloro-4-methylphenyl)-N-[4-(3-chlorophenoxy)-3-sulfamoylphenyl]acetamide]: at P2X4 [1], the IC50 was found to be 0.137 µM and the Emax is 64%. On P2X4 [2], the IC50 worked out at 0.099 µM and the Emax turned out to be 63%.

Regarding `Cc1cccc(Cl)c1CC(=O)Nc1ccc(Oc2cccc(Cl)c2)c(S(N)(=O)=O)c1` [Example 096, 2-(2-Chloro-6-methylphenyl)-N-[4-(3-chlorophenoxy)-3-sulfamoylphenyl]acetamide], on P2X4 [1], the IC50 is 0.078 µM and the Emax was 72%. At P2X4 [2], the IC50 turned out to be 0.027 µM and the Emax turned out to be 59%.

In the case of `Cc1ccc(Cl)c(CC(=O)Nc2ccc(Oc3cccc(Cl)c3)c(S(N)(=O)=O)c2)c1` [Example 097, 2-(2-Chloro-5-methylphenyl)-N-[4-(3-chlorophenoxy)-3-sulfamoylphenyl]acetamide], on P2X4 [1], the IC50 worked out at 0.119 µM and the Emax worked out at 84%. Also, on P2X4 [2], the IC50 amounted to 0.123 µM and the Emax is 78%.

For `COc1cccc(Cl)c1CC(=O)Nc1ccc(Oc2cccc(Cl)c2)c(S(N)(=O)=O)c1` [Example 101, 2-(2-Chloro-6-methoxyphenyl)-N-[4-(3-chlorophenoxy)-3-sulfamoylphenyl]acetamide], at P2X4 [1], the IC50 was 0.038 µM and the Emax worked out at 97%. At P2X4 [2], the IC50 came out at 0.059 µM and the Emax worked out at 69%.

For the compound `COc1ccc(Cl)c(CC(=O)Nc2ccc(Oc3cccc(Cl)c3)c(S(N)(=O)=O)c2)c1` [Example 102, 2-(2-Chloro-5-methoxyphenyl)-N-[4-(3-chlorophenoxy)-3-sulfamoylphenyl]acetamide], the IC50 was 0.068 µM on P2X4 [1] and 0.084 µM at P2X4 [2]. For the same compound, the Emax at P2X4 [1] was found to be 85%; at P2X4 [2], 61%.

For the compound `NS(=O)(=O)c1cc(NC(=O)Cc2cccc(Cl)c2Cl)ccc1Oc1cccc(Cl)c1` [Example 103, N-[4-(3-Chlorophenoxy)-3-sulfamoylphenyl]-2-(2,3-dichlorophenyl)acetamide], at P2X4 [1], the IC50 turned out to be 0.208 µM and the Emax was determined as 78%. At P2X4 [2], the IC50 turned out to be 0.141 µM and the Emax came to 70%.

As to `NS(=O)(=O)c1cc(NC(=O)Cc2cccc(C(F)(F)F)c2Cl)ccc1Oc1cccc(Cl)c1` [Example 107, N-[4-(3-Chlorophenoxy)-3-sulfamoylphenyl]-2-[2-chloro-3-(trifluoromethyl)phenyl]acetamide], on P2X4 [1], the IC50 worked out at 0.201 µM and the Emax was 86%. Besides, at P2X4 [2], the IC50 was 0.901 µM and the Emax came to 64%.

For the compound `NS(=O)(=O)c1cc(NC(=O)Cc2ccc(Cl)cc2Cl)ccc1Oc1cccc(Cl)c1` [Example 110, N-[4-(3-Chlorophenoxy)-3-sulfamoylphenyl]-2-(2,4-dichlorophenyl)acetamide], at P2X4 [1], the IC50 turned out to be 0.254 µM and the Emax was 79%. On P2X4 [2], the IC50 came to 0.159 µM and the Emax was 37%.

Regarding `NS(=O)(=O)c1cc(NC(=O)Cc2ccccc2OC(F)F)ccc1Oc1cccc(Cl)c1` [Example 113, N-[4-(3-Chlorophenoxy)-3-sulfamoylphenyl]-2-[2-(difluoromethoxy)phenyl]acetamide], on P2X4 [1], the IC50 turned out to be 0.173 µM and the Emax is 88%. Besides, on P2X4 [2], the IC50 turned out to be 0.239 µM and the Emax was found to be 73%.

In the case of `NS(=O)(=O)c1cc(NC(=O)Cc2ccc(C(F)(F)F)cc2)ccc1Oc1cccc(Cl)c1` [Example 116, N-[4-(3-Chlorophenoxy)-3-sulfamoylphenyl]-2-[4-(trifluoromethyl)phenyl]acetamide], the Emax stood at 87% on P2X4 [1] and 72% on P2X4 [2].

As for `NS(=O)(=O)c1cc(NC(=O)Cc2cc(Br)ccc2Cl)ccc1Oc1cccc(Cl)c1` [Example 117, 2-(5-Bromo-2-chlorophenyl)-N-[4-(3-chlorophenoxy)-3-sulfamoylphenyl]acetamide], the IC50 turned out to be 0.043 µM at P2X4 [1] and 0.468 µM at P2X4 [2]. The values for the Emax at P2X4 [1] and on P2X4 [2] were 94% and 61%, respectively.

Consider `Cc1ccc(F)c(CC(=O)Nc2ccc(Oc3cccc(Cl)c3)c(S(N)(=O)=O)c2)c1Cl` [Example 120, 2-(2-Chloro-6-fluoro-3-methylphenyl)-N-[4-(3-chlorophenoxy)-3-sulfamoylphenyl]acetamide], for which, on P2X4 [1], the IC50 is 0.065 µM and the Emax came to 83%. At P2X4 [2], the 50% inhibitory concentration (IC50) was determined as 0.194 µM and the Emax was determined as 78%.

As for `NS(=O)(=O)c1cc(NC(=O)Cc2c(F)ccc(F)c2Cl)ccc1Oc1cccc(Cl)c1` [Example 122, 2-(2-Chloro-3,6-difluorophenyl)-N-[4-(3-chlorophenoxy)-3-sulfamoylphenyl]acetamide], the figures for the IC50 at P2X4 [1] and on P2X4 [2] were 0.026 µM and 0.105 µM, respectively. In addition, the Emax is 83% at P2X4 [1] and 54% at P2X4 [2].

`Cc1ccc(Cl)c(CC(=O)Nc2ccc(Oc3cccc(Cl)c3)c(S(N)(=O)=O)c2)c1Cl` [Example 128, N-[4-(3-Chlorophenoxy)-3-sulfamoylphenyl]-2-(2,6-dichloro-3-methylphenyl)acetamide]: on P2X4 [1], the IC50 was found to be 0.184 µM and the Emax was 77%. On P2X4 [2], the IC50 turned out to be 0.38 µM and the Emax is 60%.

Take `NS(=O)(=O)c1cc(NC(=O)Cc2c(Cl)ccc(C3CC3)c2Cl)ccc1Oc1cccc(Cl)c1` [Example 129, N-[4-(3-Chlorophenoxy)-3-sulfamoylphenyl]-2-(2,6-dichloro-3-cyclopropylphenyl)acetamide]: the IC50 on P2X4 [1] was determined as 1.17 µM; at P2X4 [2] it was 1.3 µM. The figures for the Emax on P2X4 [1] and at P2X4 [2] were 83% and 69%, respectively.

Regarding `NS(=O)(=O)c1cc(NC(=O)Cc2c(Cl)ccc(C(F)(F)F)c2Cl)ccc1Oc1cccc(Cl)c1` [Example 130, N-[4-(3-Chlorophenoxy)-3-sulfamoylphenyl]-2-[2,6-dichloro-3-(trifluoromethyl)phenyl]acetamide], at P2X4 [1], the IC50 is 0.979 µM and the Emax came to 91%. In addition, at P2X4 [2], the IC50 came to 1.05 µM and the Emax came out at 70%.

With `NS(=O)(=O)c1cc(NC(=O)Cc2c(Cl)ccc(Br)c2Cl)ccc1Oc1cccc(Cl)c1` [Example 131, 2-(3-bromo-2,6-dichlorophenyl)-N-[4-(3-chlorophenoxy)-3-sulfamoylphenyl]acetamide], on P2X4 [1], the IC50 was found to be 0.284 µM and the Emax worked out at 77%. At P2X4 [2], the IC50 came out at 2.4 µM and the Emax came out at 86%.

For `Cc1ccc(Br)c(Cl)c1CC(=O)Nc1ccc(Oc2cccc(Cl)c2)c(S(N)(=O)=O)c1` [Example 132, 2-(3-Bromo-2-chloro-6-methylphenyl)-N-[4-(3-chlorophenoxy)-3-sulfamoylphenyl]acetamide], at P2X4 [1], the IC50 worked out at 0.541 µM and the Emax was determined as 72%. For the same compound, on P2X4 [2], the IC50 is 0.64 µM and the Emax stood at 102%.

As for `Cc1c(Br)ccc(Cl)c1CC(=O)Nc1ccc(Oc2cccc(Cl)c2)c(S(N)(=O)=O)c1` [Example 133, 2-(3-Bromo-6-chloro-2-methylphenyl)-N-[4-(3-chlorophenoxy)-3-sulfamoylphenyl]acetamide], on P2X4 [1], the IC50 was found to be 0.375 µM and the Emax was 75%. On P2X4 [2], the IC50 is 4.1 µM and the Emax was found to be 92%.

As to `NS(=O)(=O)c1cc(NC(=O)Cc2cc(OC(F)(F)C(F)F)ccc2Cl)ccc1Oc1cccc(Cl)c1` [Example 134, N-[4-(3-Chlorophenoxy)-3-sulfamoylphenyl]-2-[2-chloro-5-(1,1,2,2-tetrafluoroethoxy)phenyl]acetamide], at P2X4 [1], the IC50 was 0.688 µM and the Emax was 83%. Also, on P2X4 [2], the IC50 came to 1.35 µM and the Emax is 77%.

The IC50 is the concentration that inhibits the measured activity by half.
